These results are taken from patent US6207648A, “Methods of using cytochrome P450 reductase for the enhancement of P450-based anti-cancer gene therapy” (priority 1998, dated 2001).

Data set [1] relates to 9L tumors in female Fischer 344 rats. Description: In vivo cytotoxicity / tumor excision assay, s.c. 9L tumors. On the set-up: species or system rat. As to the method:
FIG. 9 is a graph depicting the results of an in vivo tumor excision assay, which quantitates the extent of CPA-induced tumor cell kill in rats in vivo for 9L tumors, compared to 9L tumors engineered to express P450 alone (CYP2B1^+) or P450 in combination with RED (CYP2B1^+ RED^+++).Female Fischer 344 rats were inoculated with parental 9L, CYP2B1^+, and CYP2B1^+ RED^+++ tumor cells by subcutaneous injection of 2×10^6 tumor cells/0.2 ml in the hindleg as described below in the "Materials and Methods" section of Example 1. At 2 weeks after tumor implantation, each animal received a single injection of CPA (50 or 100 mg/kg body weight) or saline as control. Twenty four hours later, tumors were excised, and single cell suspensions were prepared for assay of colony formation activity. Results are presented as mean survival fractions as compared to control groups, for 4 or 5 determinations; bars, standard error (SE).
In vivo cytotoxicity assay: Tumor cells were grown subcutaneously as solid tumors in female Fischer 344 rats (120-150g). Each rat was inoculated by subcutaneous injection of one tumor cell line at the right thigh and a second tumor cell line at the left thigh at 2×10^6 cells/site. Rats were randomized and divided into three groups. One group was injected with saline as a control. The other two groups were treated with CPA at 50 mg/kg or 100 mg/kg body weight given as a single intraperitoneal injection 2 weeks after tumor implantation. At 24 hours after CPA injection, the rats were sacrificed and soaked briefly in 75% ethanol. The tumors were excised, suspended in DMEM, and minced under sterile conditions. […] The single cell suspensions were counted and plated at densities of 200, 2×10^3 and 2×10^4 cells/well of a 6-well plate, in duplicate, to determine cell viability by a colony formation assay. […] Cells were grown for 7 days and colonies (>50 cells) were then stained with crystal violet and counted. Results are expressed as the surviving fractions SEM of cells from drug treated groups compared to untreated controls.

Data set [2] deals with 9L gliosarcoma cells (parental, CYP2B1+, CYP2B1+ RED+++). Description: In vitro growth inhibition assay, XTT (Example 1). The settings on record: lines PR11, PR7 vs P3, P17; growth inhibition assay. A general note: Formazan colour is commonly taken as a measure of viable cells.
Protocol: Cells (1000/well) seeded in 96-well plates were treated with the indicated concentrations of CPA for 4 days. Corresponding controls received no drug treatment. Cell survival was determined by an XTT calorimetric assay. Data (mean for triplicate samples) were expressed as growth ratio (%), i. e., cell number (XTT activity) in drug treated plates as a percentage of the corresponding drug-free controls.
Cells (500/well) seeded in 96-well plates were treated with 1 mM cyclophosphamide in the absence or presence of the RED inhibitors AADP (0.5 mM) or DPI (5 μM). Corresponding controls received no drug treatment. Cell survival was determined by an XTT colorimetric assay. Data (mean for triplicate samples) are expressed as growth ratio (%), i.e., cell number (XTT activity) in drug treated plates as a percentage of the corresponding drug-free controls and are representative of 2-3 independent experiments. AADP and DPI were added to the cells 30 minutes prior to CPA treatment.
(B) Growth inhibition assay--Cells (1000/well) seeded in 96 well plates were treated with the indicated concentrations of CPA for 4-5 days. Corresponding controls received no drug treatment. Cell survival was determined by an XTT colorimetric assay, a cell proliferation assay that measures mitochondrial dehydrogenase activity of viable cells (Scudiero, D. A., et al., Cancer Res. 48:4827-4833 (1988)).

Consider `O=P1(N(CCCl)CCCl)NCCCO1` (stereo not shown) [CPA, cyclophosphamide], for which the “killing of CYP2B1+ tumors compared to wild type 9L tumors” value in data set [1] (100 mg/kg, 24 h) was “up to 10 fold”. The “additional tumor cell killing in CYP2B1+ RED+++ tumors” value in data set [1] (24 h after CPA) is recorded as “approximately 10 fold”. Moreover, the “overall increase in tumor cell kill in vivo over hepatic drug activation alone” value in data set [1] (CYP2B1 + RED) is 50-100 fold. Moreover, in data set [2], the “cytotoxic response of CYP2B1+ cells on RED overexpression” value is on record as “significantly enhanced the cytotoxic response”.
